{
  "source": "patent US20200352918A1",
  "about": "“COMPOUNDS AND METHODS FOR TREATING OR PREVENTING FIBROSIS” (priority 2019, published 2020)",
  "key": {"[1]": {"test_system": "SSEA4+ cells", "assay": "FACS of SSEA4+ cells in the iFA model", "type": "cell-based, human", "details": "AA5 treatment", "protocol": "For determination of various cell populations in the iFA model, the cells were dissociated using Accumax (Stem Cell Technologies) for 5 minutes, pelleted and resuspended in FACS buffer (3% Fetal Bovine Serum/PBS). 1×10^6 cells were incubated with a the appropriate conjugated antibody listed in Table 3 for 20 minutes at 4° C. under shaking conditions. The cells were washed with the FACS buffer and acquired using a flow cytometer (BD LSRII) and analysed using FACS Diva and FlowJo softwares."}, "[2]": {"test_system": "HMGB1", "assay": "HMGB1 (ELISA, IF) in the iFA model", "type": "cell-based, human", "protocol": "Conditioned media at different time points of progression of the phenotype, and on prevention and resolution drug treatments were collected and quantification of protein was performed using the IBL man HMGB1 ELISA kit or LSBio NPTX1 ELISA kits per manufacturer's instructions. 10 μl of each supernatant sample was added to anti-HMGB1 polyclonal antibody-coated plate and incubated for 20 hours at 37° C. All liquid was then removed and the plate manually washed 5 times with wash buffer. 100 μl of enzyme conjugate was then added and incubated for 2 hours at room temperature. After washing again, color solution was added at 100 μl per well and incubated for 30 minutes at room temperature. Following an additional five washes, the plate was incubated with 90 μl of TMB substrate for another 15 minutes at 37° C. in the dark. The reaction was then stopped by addition 100 μl of stop solution. Absorbance was measured at 450 nm using a SpectraMAX Plate Reader. Data was analyzed using SoftMax Pro software.\nCells grown on coverslips were fixed in 4% paraformaldehyde (PFA) for 10 min at room temperature and washed three times with TBS buffer supplemented with 0.1% Tween 20 (TBST). Lung samples were fixed overnight in 4% PFA at room temperature, washed 3 times in PBS, dehydrated and then infiltrated and embedded with wax. Five-micron sections were collected on glass slides, deparaffinized and rehydrated. […]"}},
  "data": [
    {"smiles": "Cc1c(C(=O)Nc2nc3ccccc3s2)sc2nc3cc4c(cc3cc12)OCO4", "note": "[AA5]", "values": [
      {"measurement": "Percentages of SSEA4+ cells", "setting": "[1]", "value": "attenuated"},
      {"measurement": "Cytoplasmic HMGB1 (IF staining)", "setting": "[2]; AA5-prevention and AA5-resolution vs DMSO", "value": "absence or significantly reduced cytoplasmic HMGB1"},
      {"measurement": "Secreted levels of HMGB1", "setting": "[2]; iFA model, AA5p and AA5r vs DMSO", "value": "attenuated"}
    ]}
  ]
}
